Data published in patent publication US10189840B2, “Substituted tricyclic heterocyclic compounds” (BRISTOL-MYERS SQUIBB COMPANY, priority 2015, dated 2019).
pIC50: −log10 of the molar value.

Molecular target: TNFα (Homo sapiens (Human), UniProt P01375)
Test: TNF induced HEK-Blue assay
Assay type: cell-based
Settings: TNFα 0.5 ng/ml; HEK-Blue-CD40L cells, NF-κB-driven secreted alkaline phosphatase reporter; 18 h
Summary of the method: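 Compounds at 0.004–25 μM final were preincubated 30 min with TNFα (0.5 ng/ml final) in DMEM/10% FBS. HEK-Blue-CD40L cells carrying an NF-κB-driven SEAP reporter (20,000/well) were then added for 18 h at 37 °C, 5% CO2, and SEAP was read by QUANTI-Blue at 620 nm. IC50 came from a 4-parameter logistic fit, normalized to unstimulated and stimulated DMSO controls.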

Chain of TNFα (P01375 77-233): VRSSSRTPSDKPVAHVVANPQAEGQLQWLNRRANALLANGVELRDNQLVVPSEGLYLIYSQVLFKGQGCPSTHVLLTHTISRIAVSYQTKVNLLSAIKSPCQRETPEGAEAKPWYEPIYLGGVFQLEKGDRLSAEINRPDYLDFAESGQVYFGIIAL

Structure (SMILES) | pIC50
CC(C)(O)c1ccc(-c2ccc3nc4n(c3n2)C(c2ccccc2C2CC2)CC4F)cc1 (stereo not drawn) [Example 21 (e3), 2-(4-(8-(2-cyclopropylphenyl)-6-fluoro-7,8-dihydro-6H-pyrrolo[2′,1′:2,3]imidazo[4,5-b]pyridin-2-yl)phenyl)propan-2-ol] | 5.00 to 6.00
CC(C)(O)c1ccc(-c2ccc3nc4n(c3n2)C(c2ccccc2OC(F)(F)F)CC4F)cc1 (stereo not drawn) [Example 22 (e3), 2-(4-(6-fluoro-8-(2-(trifluoromethoxy)phenyl)-7,8-dihydro-6H-pyrrolo[2′,1′:2,3]imidazo[4,5-b]pyridin-2-yl)phenyl)propan-2-ol] | 5.00 to 6.00
CC(C)(O)c1ccc(-c2ccc3nc4n(c3n2)C(c2cc(F)ccc2C(F)(F)F)CC4F)cc1 (stereo not drawn) [Example 24 (e3), 2-(4-(6-fluoro-8-(5-fluoro-2-(trifluoromethyl)phenyl)-7,8-dihydro-6H-yrrolo[2′,1′:2,3]imidazo[4,5-b]pyridin-2-yl)phenyl)propan-2-ol] | 5.00 to 6.00
Cc1ccc(C)c([C@H]2CCc3nc4ccc(-c5ccc(C(C)(C)O)cc5)nc4n32)c1 [Example 37, (R)-2-(4-(8-(2,5-dimethylphenyl)-7,8-dihydro-6H-pyrrolo[2′,1′:2,3]imidazo[4,5-b]pyridin-2-yl)phenyl)propan-2-ol] | > 6.00
Cc1ccc(C)c([C@H]2CCc3nc4ccc(-c5ccc(N6CCN(C)CC6)cc5)nc4n32)c1 [Example 38, (R)-8-(2,5-dimethylphenyl)-2-(4-(4-methylpiperazin-1-yl)phenyl)-7,8-dihydro-6H-pyrrolo[2′,1′:2,3]imidazo[4,5-b]pyridine] | 5.00 to 6.00
COc1ccc(-c2ccc3nc4n(c3n2)[C@@H](c2cc(C)ccc2C)CC4)cn1 [Example 39, (R)-8-(2,5-dimethylphenyl)-2-(6-methoxypyridin-3-yl)-7,8-dihydro-6H-pyrrolo[2′,1′:2,3]imidazo[4,5-b]pyridine] | 5.00 to 6.00
Cc1ccc(C)c([C@H]2CCc3nc4ccc(-c5cnn(C)c5)nc4n32)c1 [Example 40, (R)-8-(2,5-dimethylphenyl)-2-(1-methyl-1H-pyrazol-4-yl)-7,8-dihydro-6H-pyrrolo[2′,1′:2,3]imidazo[4,5-b]pyridine] | 5.00 to 6.00

More lines, now with the values ahead:

pIC50 | Structure (SMILES)
> 6.00 | CC(C)(O)c1ccc(-c2ccc3nc4n(c3n2)C(c2c(F)cccc2C(F)(F)F)CC4F)cc1 (stereo not drawn) [Example 23 (e1), 2-(4-(6-fluoro-8-(2-fluoro-6-(trifluoromethyl)phenyl)-7,8-dihydro-6H-pyrrolo[2′,1′:2,3]imidazo[4,5-b]pyridin-2-yl)phenyl)propan-2-ol]
> 6.00 | CC(C)(O)c1ccc(-c2ccc3nc4n(c3n2)C(c2cc(F)ccc2C(F)(F)F)CC4F)cc1 (stereo not drawn) [Example 24 (DM), 2-(4-(6-fluoro-8-(5-fluoro-2-(trifluoromethyl)phenyl)-7,8-dihydro-6H-yrrolo[2′,1′:2,3]imidazo[4,5-b]pyridin-2-yl)phenyl)propan-2-ol]
> 6.00 | CC(C)(O)c1ccc(-c2ccc3nc4n(c3n2)C(c2cc(F)ccc2C(F)(F)F)CC4F)cc1 (stereo not drawn) [Example 24 (e4), 2-(4-(6-fluoro-8-(5-fluoro-2-(trifluoromethyl)phenyl)-7,8-dihydro-6H-yrrolo[2′,1′:2,3]imidazo[4,5-b]pyridin-2-yl)phenyl)propan-2-ol]
> 6.00 | COc1ccccc1C1CCc2nc3ccc(-c4ccc(C(C)(C)O)cc4)nc3n21 (stereo not drawn) [Example 31 (e1), 2-(4-(8-(2-methoxyphenyl)-7,8-dihydro-6H-pyrrolo[2′,1′:2,3]imidazo[4,5-b]pyridin-2-yl)phenyl)propan-2-ol]
> 6.00 | Cc1ccc(C)c([C@H]2CCc3nc4ccc(-c5cnc(C(C)(C)O)nc5)nc4n32)c1 [Example 36, (R)-2-(5-(8-(2,5-Dimethylphenyl)-7,8-dihydro-6H-pyrrolo[2′,1′:2,3]imidazo[4,5-b]pyridin-2-yl)pyrimidin-2-yl)propan-2-ol]
